Among the test systems are M14 melanoma; HCT-116 colon; KM12 colon; SF-295 CNS; RXF 393 renal; MDA-MB-435; HS 578T breast; A549 NSCLC; MOLT-4 leukemia; A498 renal; HCC-2998 colon; MCF7 breast; OVCAR-5 ovarian; SW-620 colon; NCI/ADR-RES ovarian; COLO 205 colon; RPMI-8226 leukemia; HCT-15 colon; MALME-3M melanoma; HOP-92 NSCLC.
What all share (experiment): NCI tumour cell line growth inhibition, 48 h

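Step 1: Grow cells in 96-well plates. Step 2: Expose to compound for 48 hours at 5 concentrations. Step 3: Interpolate endpoints linearly; if unreached, use highest concentration. At the TGI there is no net growth.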

Take `COc1cc(NC(C)=O)ccc1C(=O)N/N=C/c1ccc(Cl)cc1Cl`: the TGI with M14 melanoma is above 100 µM; in the assay with HCT-116 colon, above 100 µM; with KM12 colon, above 100 µM; in the assay with SF-295 CNS, above 100 µM; with RXF 393 renal it was 72.5 µM; in the assay with MDA-MB-435, 56.4 µM. Also, the TGI is above 100 µM in the assay on HS 578T breast; above 100 µM with A549 NSCLC; above 100 µM in the assay with MOLT-4 leukemia; 61 µM in the assay on A498 renal; above 100 µM in the assay with HCC-2998 colon; above 100 µM in the assay with MCF7 breast. Moreover, the TGI with OVCAR-5 ovarian, with SW-620 colon, in the assay with NCI/ADR-RES ovarian, in the assay with COLO 205 colon, in the assay with RPMI-8226 leukemia and with HCT-15 colon was above 100 µM each time. In addition, the TGI in the assay with MALME-3M melanoma and in the assay with HOP-92 NSCLC was above 100 µM each time.
Regarding `O=C(CCc1ccccc1)ON1C(=S)NC(c2ccccc2)(c2ccccc2)C1=S`, the TGI was above 100 µM in the assay with M14 melanoma; above 100 µM in the assay with HCT-116 colon; 89.7 µM in the assay with KM12 colon; above 100 µM with SF-295 CNS; 93 µM with RXF 393 renal; above 100 µM in the assay on MDA-MB-435. The TGI in the assay on HS 578T breast is above 100 µM; with A549 NSCLC, above 100 µM; with MOLT-4 leukemia, 75.5 µM; with A498 renal it was above 100 µM; in the assay on HCC-2998 colon, above 100 µM; with MCF7 breast, above 100 µM. Besides, the TGI in the assay on OVCAR-5 ovarian was above 100 µM; in the assay with SW-620 colon it was above 100 µM; with NCI/ADR-RES ovarian, above 100 µM; in the assay with COLO 205 colon it was above 100 µM; in the assay with RPMI-8226 leukemia, 80.4 µM; with HCT-15 colon it was above 100 µM. Also, the TGI in the assay on MALME-3M melanoma was 71.5 µM; in the assay with HOP-92 NSCLC it was above 100 µM.
On to `CC(C)(C)C(=O)C(C(=O)C(C)(C)C)C(=O)C(C)(C)C`, for which the TGI in the assay with M14 melanoma, in the assay with HCT-116 colon, in the assay on KM12 colon, in the assay on SF-295 CNS, with RXF 393 renal and in the assay with MDA-MB-435 was above 100 µM throughout. Also, the TGI with HS 578T breast, with A549 NSCLC, in the assay with MOLT-4 leukemia, with A498 renal, in the assay on HCC-2998 colon and in the assay with MCF7 breast was above 100 µM throughout. Moreover, the TGI in the assay on OVCAR-5 ovarian, in the assay with SW-620 colon, with NCI/ADR-RES ovarian, with COLO 205 colon, in the assay on RPMI-8226 leukemia and with HCT-15 colon was above 100 µM in each case. Moreover, the TGI with MALME-3M melanoma and in the assay on HOP-92 NSCLC was above 100 µM each time.
For the compound `NNC(=O)c1ccccc1NC(=O)/C(=C/c1ccccc1O)NC(=O)c1ccccc1`, the TGI in the assay with M14 melanoma, in the assay on HCT-116 colon, in the assay with KM12 colon, with SF-295 CNS, with RXF 393 renal and with MDA-MB-435 was above 100 µM each time. For the same compound, the TGI with HS 578T breast was 39.3 µM; with A549 NSCLC it was above 100 µM; in the assay with MOLT-4 leukemia, above 100 µM; in the assay on A498 renal it was above 100 µM; in the assay on HCC-2998 colon, above 100 µM; in the assay with MCF7 breast, 39.2 µM. In addition, the TGI with OVCAR-5 ovarian was above 100 µM; with SW-620 colon, above 100 µM; in the assay on NCI/ADR-RES ovarian, 50.8 µM; with COLO 205 colon, above 100 µM; in the assay with RPMI-8226 leukemia, above 100 µM; with HCT-15 colon, above 100 µM. Further, the TGI in the assay with MALME-3M melanoma and in the assay with HOP-92 NSCLC was above 100 µM throughout.
With `Cc1ccc(NN=NCCCCN)cc1`, the TGI in the assay with M14 melanoma, with HCT-116 colon, with KM12 colon, with SF-295 CNS, with RXF 393 renal and with MDA-MB-435 was above 100 µM throughout. Besides, the TGI in the assay on HS 578T breast, in the assay with A549 NSCLC, in the assay on MOLT-4 leukemia, with A498 renal, in the assay on HCC-2998 colon and in the assay on MCF7 breast was above 100 µM in each case. Also, the TGI in the assay with OVCAR-5 ovarian, in the assay with SW-620 colon, with NCI/ADR-RES ovarian, in the assay with COLO 205 colon, in the assay on RPMI-8226 leukemia and with HCT-15 colon was above 100 µM each time. The TGI in the assay with MALME-3M melanoma and with HOP-92 NSCLC was above 100 µM each time.
Consider `CN(CCCCN1CCCC1)CCCN(C)C(=O)Cc1ccc(Cl)c(Cl)c1`, for which the TGI was 38.1 µM with M14 melanoma; 28.3 µM in the assay with HCT-116 colon; 25.3 µM in the assay with KM12 colon; 38.8 µM with SF-295 CNS; 29.6 µM in the assay on RXF 393 renal; 10.2 µM in the assay on MDA-MB-435. The TGI in the assay on HS 578T breast turned out to be 59.6 µM; with A549 NSCLC it was 44.5 µM; in the assay with MOLT-4 leukemia, 26.5 µM; in the assay with A498 renal, 30.7 µM; with HCC-2998 colon, 16.9 µM; in the assay with MCF7 breast, 34.4 µM. In addition, the TGI is 57.8 µM with OVCAR-5 ovarian; 42.6 µM with SW-620 colon; above 100 µM in the assay on NCI/ADR-RES ovarian; 28.9 µM in the assay with COLO 205 colon; 25.9 µM with RPMI-8226 leukemia; 85.1 µM in the assay with HCT-15 colon. Also, the TGI was 34.7 µM with MALME-3M melanoma and 21.3 µM with HOP-92 NSCLC.

Source of the values: PubChem BioAssay (NCI).
